Test results from ChEMBL document CHEMBL4229455, “Synthesis and anticancer activity of novel bisindolylhydroxymaleimide derivatives with potent GSK-3 kinase inhibition” (Bioorg Med Chem, 2018).
pIC50: −log10 of the molar value.

Experiments:
[1] = tested on: MDA-MB-231; experiment: Cytotoxicity against human MDA-MB-231 cells assessed as cell growth at 0.01 uM after 48 hrs by SRB assay relative to control; assay type: functional; conditions: MDA-MB-231, 48 h, read-out: Activity
[2] = tested on: NCI-H522; experiment: Cytotoxicity against human NCI-H522 cells assessed as cell growth at 10 uM after 48 hrs by SRB assay relative to control; assay type: functional; conditions: NCI-H522, 48 h, read-out: Activity
[3] = tested on: OVCAR-8; experiment: Cytotoxicity against human OVCAR8 cells assessed as cell growth at 10 uM after 48 hrs by SRB assay relative to control; assay type: functional; conditions: OVCAR-8, 48 h, read-out: Activity
[4] = tested on: NCI-H226; experiment: Cytotoxicity against human NCI-H226 cells assessed as cell growth at 10 uM after 48 hrs by SRB assay relative to control; assay type: functional; conditions: NCI-H226, 48 h, read-out: Activity
[5] = tested on: HCT-15; experiment: Cytotoxicity against human HCT15 cells assessed as cell growth at 0.01 uM after 48 hrs by SRB assay relative to control; assay type: functional; conditions: HCT-15, 48 h, read-out: Activity
[6] = target: Aurora kinase B (Homo sapiens, UniProt Q96GD4); experiment: Inhibition of recombinant full length human aurora B expressed in baculovirus infected Sf9 insect cells using MBP as substrate in presence of [gamma-33P]ATP
[7] = tested on: ACHN; experiment: Cytotoxicity against human ACHN cells assessed as cell growth at 0.1 uM after 48 hrs by SRB assay relative to control; assay type: functional; conditions: read-out: Activity
[8] = tested on: NCI-H23; experiment: Cytotoxicity against human NCI-H23 cells assessed as cell growth at 0.1 uM after 48 hrs by SRB assay relative to control; assay type: functional; conditions: NCI-H23, 48 h, read-out: Activity
[9] = tested on: KM12; experiment: Cytotoxicity against human KM12 cells assessed as cell growth at 10 uM after 48 hrs by SRB assay relative to control; assay type: functional; conditions: KM12, 48 h, read-out: Activity
[10] = tested on: CAKI-1; experiment: Cytotoxicity against human Caki1 cells assessed as cell growth at 10 uM after 48 hrs by SRB assay relative to control; assay type: functional; conditions: CAKI-1, 48 h, read-out: Activity
[11] = tested on: OVCAR-5; experiment: Cytotoxicity against human OVCAR5 cells after 48 hrs by SRB assay; assay type: functional; conditions: OVCAR-5, 48 h
[12] = tested on: HT-29; experiment: Cytotoxicity against human HT-29 cells assessed as cell growth at 10 uM after 48 hrs by SRB assay relative to control; assay type: functional; conditions: HT-29, 48 h, read-out: Activity
[13] = target: CDK2/Cyclin A2 (Homo sapiens, UniProt P24941); experiment: Inhibition of full length human CDK2/cyclin A using histone H1 as substrate in presence of [gamma-33P]ATP; assay type: protein-complex assay
[14] = tested on: UO-31; experiment: Cytotoxicity against human UO31 cells assessed as cell growth at 0.1 uM after 48 hrs by SRB assay relative to control; assay type: functional; conditions: UO-31, 48 h, read-out: Activity
[15] = tested on: IGROV-1; experiment: Cytotoxicity against human IGROV1 cells assessed as cell growth at 10 uM after 48 hrs by SRB assay relative to control; assay type: functional; conditions: IGROV-1, 48 h, read-out: Activity
[16] = tested on: SNB-19; experiment: Cytotoxicity against human SNB19 cells assessed as cell growth at 0.01 uM after 48 hrs by SRB assay relative to control; assay type: functional; conditions: SNB-19, 48 h, read-out: Activity
[17] = tested on: SN12C; experiment: Cytotoxicity against human SN12C cells assessed as cell growth at 10 uM after 48 hrs by SRB assay relative to control; assay type: functional; conditions: read-out: Activity
[18] = tested on: SF-268; experiment: Cytotoxicity against human SF268 cells assessed as cell growth at 10 uM after 48 hrs by SRB assay relative to control; assay type: functional; conditions: SF-268, 48 h, read-out: Activity
[19] = tested on: HCC 2998; experiment: Cytotoxicity against human HCC2998 cells assessed as cell growth at 0.01 uM after 48 hrs by SRB assay relative to control; assay type: functional; conditions: HCC 2998, 48 h, read-out: Activity
[20] = tested on: MDA-MB-231; experiment: Cytotoxicity against human MDA-MB-231 cells assessed as cell growth at 10 uM after 48 hrs by SRB assay relative to control; assay type: functional; conditions: MDA-MB-231, 48 h, read-out: Activity
[21] = tested on: A549; experiment: Cytotoxicity against human A549 cells assessed as cell growth at 100 uM after 48 hrs by SRB assay relative to control; assay type: functional; conditions: A549, 48 h, read-out: Activity
[22] = target: CDK2/Cyclin A2 (Homo sapiens) (UniProt P24941+P20248); experiment: Inhibition of full length human CDK2/cyclin A assessed as residual activity at 10 uM using histone H1 as substrate in presence of [gamma-33P]ATP; assay type: protein-complex assay
[23] = tested on: HOP-92; experiment: Cytotoxicity against human HOP92 cells assessed as cell growth at 10 uM after 48 hrs by SRB assay relative to control; assay type: functional; conditions: HOP-92, 48 h, read-out: Activity
[24] = tested on: M14; experiment: Cytotoxicity against human M14 cells assessed as cell growth at 10 uM after 48 hrs by SRB assay relative to control; assay type: functional; conditions: M14, 48 h, read-out: Activity
[25] = tested on: DU-145; experiment: Cytotoxicity against human DU145 cells assessed as cell growth at 10 uM after 48 hrs by SRB assay relative to control; assay type: functional; conditions: DU-145, 48 h, read-out: Activity
[26] = tested on: A498; experiment: Cytotoxicity against human A498 cells assessed as cell growth at 1 uM after 48 hrs by SRB assay relative to control; assay type: functional; conditions: A498, 48 h, read-out: Activity
[27] = tested on: NCI/ADR-RES; experiment: Cytotoxicity against human NCI-ADR-RES cells assessed as cell growth at 10 uM after 48 hrs by SRB assay relative to control; assay type: functional; conditions: read-out: Activity
[28] = tested on: UACC-257; experiment: Cytotoxicity against human UACC257 cells assessed as cell growth at 10 uM after 48 hrs by SRB assay relative to control; assay type: functional; conditions: UACC-257, 48 h, read-out: Activity
[29] = tested on: A498; experiment: Cytotoxicity against human A498 cells assessed as cell growth at 10 uM after 48 hrs by SRB assay relative to control; assay type: functional; conditions: A498, 48 h, read-out: Activity
[30] = tested on: SR; experiment: Cytotoxicity against human SR cells assessed as cell growth at 0.1 uM after 48 hrs by SRB assay relative to control; assay type: functional; conditions: read-out: Activity
[31] = tested on: NCI-H460; experiment: Cytotoxicity against human NCI-H460 cells assessed as cell growth at 10 uM after 48 hrs by SRB assay relative to control; assay type: functional; conditions: NCI-H460, 48 h, read-out: Activity
[32] = tested on: OVCAR-3; experiment: Cytotoxicity against human OVCAR3 cells assessed as cell growth at 10 uM after 48 hrs by SRB assay relative to control; assay type: functional; conditions: OVCAR-3, 48 h, read-out: Activity
[33] = tested on: SR; experiment: Cytotoxicity against human SR cells assessed as cell growth at 10 uM after 48 hrs by SRB assay relative to control; assay type: functional; conditions: read-out: Activity
[34] = tested on: EKVX; experiment: Cytotoxicity against human EKVX cells assessed as cell growth at 10 uM after 48 hrs by SRB assay relative to control; assay type: functional; conditions: read-out: Activity

Aurora kinase B, sequence (Q96GD4 whole entry): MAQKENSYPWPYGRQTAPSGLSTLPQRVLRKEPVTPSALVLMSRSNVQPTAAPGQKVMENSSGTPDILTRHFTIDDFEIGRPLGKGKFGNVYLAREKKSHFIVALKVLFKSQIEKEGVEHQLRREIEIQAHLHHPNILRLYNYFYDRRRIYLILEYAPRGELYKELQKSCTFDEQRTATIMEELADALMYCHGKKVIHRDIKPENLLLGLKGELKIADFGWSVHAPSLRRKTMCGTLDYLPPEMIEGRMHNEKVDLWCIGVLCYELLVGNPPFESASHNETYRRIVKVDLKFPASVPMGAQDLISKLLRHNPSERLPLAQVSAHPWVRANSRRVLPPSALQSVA

Row | Structure (SMILES) | growth at 0.01 µM [1] | growth at 10 µM [2] | growth at 10 µM [3] | growth at 0.01 µM [5] | pIC50 [6] | growth at 0.1 µM [7] | growth at 0.1 µM [8] | growth at 10 µM [9] | growth at 10 µM [10] | GI50 [11] | TGI [11] | growth at 10 µM [12] | pIC50 [13] | growth at 0.1 µM [14] | growth at 10 µM [15] | growth at 0.01 µM [16] | growth at 10 µM [17] | growth at 10 µM [18] | growth at 0.01 µM [19] | growth at 10 µM [20] | further results
1 | N#CCCCCCn1cc(C2=C(c3cn(CCCCCC#N)c4ccccc34)C(=O)N(O)C2=O)c2ccccc21 | 96% | 1 to 54.9% | 55 to 87.6% | 93% | < 5.00 | 91% | 90% | 25 to 65.7% | 65 to 67% | 38.4 µM | > 100 µM | 51 to 92.4% | < 5.00 | 66% | 28 to 66.8% | 97% | 47 to 88.2% | 50 to 80.6% | 98% | 31 to 40.3% | growth at 10 µM [4]: 44 to 70%; LC50 [11]: > 100 µM; growth at 100 µM [21]: 5%; Activity [22]: 78%; growth at 10 µM [23]: 25%; growth at 10 µM [24]: 28 to 73.4%; growth at 10 µM [25]: 80 to 101%; growth at 1 µM [26]: 70%; growth at 10 µM [27]: 62 to 96.3%; growth at 10 µM [28]: 56 to 82.1%; growth at 10 µM [29]: 16 to 69.2%; growth at 0.1 µM [30]: 100%; growth at 10 µM [31]: 28 to 72.7%; growth at 10 µM [32]: 13 to 50.6%
2 | Cn1cc(C2=C(c3cn(C)c4ncccc34)C(=O)NC2=O)c2ccccc21 | 99% | 14.3 to 32% | 23 to 53.8% | 100% | < 5.00 | 99% | 95% | 8.78 to 12% | 35% | 3.88 µM | 29.1 µM | 2.28 to 5% | 7.00 | 89% | 8 to 70.8% | 92% | 4 to 30.7% | 27 to 50.2% | 103% | 35 to 56.3% | growth at 100 µM [21]: -19%; growth at 10 µM [33]: 7 to 12.1%; Activity [22]: -3%; growth at 10 µM [23]: 12%; growth at 10 µM [24]: 7 to 17.5%; growth at 10 µM [25]: 36 to 63.2%; growth at 1 µM [26]: 27%; growth at 10 µM [34]: 9 to 62.7%; growth at 10 µM [27]: 34 to 53.5%; growth at 10 µM [28]: 35 to 84.8%; growth at 0.1 µM [30]: 88%; growth at 10 µM [31]: 19 to 19.5%; growth at 10 µM [32]: 25 to 50.2%
